Source: the supplement of paper PMC10307832

How the values were obtained:
Assay in all cases: relative viability (nuclei count vs DMSO), 5 days (fraction); higher = more cells survive
[1] = compound: CCC1=CN=CN=C1N2CCN(CC2)CC3=NC4=C(N3)C=C(C=C4)C(F)(F)F + CC(C)C[C@H](NC(=O)[C@H](Cc1ccccc1)NC(=O)c1cnccn1)B(O)O [Bortezomib] (partner 0.002 µM)
Outline: (§1)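 Cells from lung cancer lines were seeded into 1536-well plates and, one day later, dosed by pin tool. Treatments were either a single drug or a fixed dose of an anchor drug with five library-drug doses (not always all listed) in √10 steps. After 5 days, nuclei were stained in a one-step fixation (final 0.05% Triton X-100, 1% formaldehyde, 1 ug/ml Hoechst) and counted on 4× images, and relative viability is the treated-to-vehicle nuclei ratio, as the median of duplicate plates.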

[2] = compound: CCC1=CN=CN=C1N2CCN(CC2)CC3=NC4=C(N3)C=C(C=C4)C(F)(F)F + CC(=O)c1c(C)c2cnc(Nc3ccc(N4CCNCC4)cn3)nc2n(C2CCCC2)c1=O [Palbociclib] (partner 0.5 µM)
Outline: as §1

Mirin + OSI-027 = compound: N=C1NC(=O)/C(=C/c2ccc(O)cc2)S1 [Mirin] + COc1cccc2cc(-c3nc([C@H]4CC[C@H](C(=O)O)CC4)n4ncnc(N)c34)[nH]c12 [OSI-027] (partner 0.5 µM)
Outline: as §1

[3] = compound: CCn1c(-c2nonc2N)nc2cnc(Oc3cccc(NC(=O)c4ccc(OCCN5CCOCC5)cc4)c3)cc21 + C[C@]1(O)C[C@@H](c2nc(-c3ccc4ccc(-c5ccccc5)nc4c3)c3c(N)nccn32)C1 [Linsitinib] (partner 1 µM)
Outline: as §1

Cell Line | relative viability ([1]; first compound 0.04 µM) | relative viability ([1]; first compound 0.1265 µM) | relative viability ([1]; first compound 0.4 µM) | relative viability ([1]; first compound 1.265 µM) | relative viability ([1]; first compound 4 µM) | relative viability ([2]; first compound 0.04 µM) | relative viability ([2]; first compound 0.1265 µM) | relative viability ([2]; first compound 0.4 µM) | relative viability ([2]; first compound 1.265 µM) | relative viability ([2]; first compound 4 µM) | relative viability (Mirin + OSI-027; first compound 0.25 µM) | relative viability (Mirin + OSI-027; first compound 0.7906 µM) | relative viability (Mirin + OSI-027; first compound 2.5 µM) | relative viability (Mirin + OSI-027; first compound 7.906 µM) | relative viability (Mirin + OSI-027; first compound 25 µM) | relative viability ([3]; first compound 0.04 µM) | relative viability ([3]; first compound 0.1265 µM) | relative viability ([3]; first compound 0.4 µM) | relative viability ([3]; first compound 1.265 µM) | relative viability ([3]; first compound 4 µM)
HCC-78 | 0.538 | 0.592 | 0.59 | 0.528 | 0.517 | 0.447 | 0.461 | 0.477 | 0.451 | 0.468 | 0.37 | 0.366 | 0.419 | 0.292 | 0.349 | 0.673 | 0.498 | 0.551 | 0.664 | 0.621
HCC-366 | 1 | 1.06 | 1.05 | – | 1.01 | 0.319 | 0.328 | 0.321 | 0.34 | 0.383 | 0.974 | – | 0.919 | 0.711 | 0.882 | 0.435 | 0.64 | 0.597 | 0.0751 | 0.0223
HCC-827 | 1.01 | 0.997 | 1.02 | 0.95 | 0.953 | 0.497 | 0.53 | 0.498 | 0.431 | 0.468 | 0.785 | 0.71 | 0.748 | 0.737 | 0.744 | 0.974 | 0.907 | 0.94 | 0.992 | 0.823
HOP-62 | 0.869 | 0.819 | 0.648 | 0.677 | 0.947 | 0.475 | 0.451 | 0.414 | 0.438 | 0.413 | 0.836 | 0.787 | 0.846 | 0.663 | 0.688 | 1.22 | 1.27 | 0.808 | 0.595 | 1.02
IA-LM | 0.786 | 0.911 | 0.761 | 0.752 | 0.702 | – | – | – | – | – | – | – | – | – | – | 0.95 | 0.8 | 0.658 | 0.54 | 0.681
LC-2-ad | 0.993 | 0.959 | 0.969 | 0.963 | 0.952 | 0.471 | 0.48 | 0.501 | 0.466 | 0.472 | 0.851 | 0.776 | 0.822 | 0.567 | 0.492 | 0.936 | 0.899 | 0.756 | 0.55 | 0.352
LCLC-97TM1 | – | 0.516 | 0.598 | 0.668 | 0.942 | 0.196 | 0.2 | 0.228 | 0.282 | 0.196 | 0.455 | 0.263 | 0.341 | 0.291 | 0.292 | 0.221 | 0.204 | – | 0.206 | 0.181
LK-2 | – | – | – | – | – | 0.685 | 0.469 | 0.752 | 0.381 | 0.594 | 0.195 | 0.154 | 0.198 | 0.138 | 0.146 | 0.522 | 0.691 | 0.572 | 0.342 | 0.74
NCI-H358 | – | – | – | – | – | 0.135 | 0.136 | 0.121 | 0.128 | 0.141 | 0.783 | 0.843 | 0.793 | 0.542 | 0.368 | 1.12 | 0.615 | 0.574 | 0.571 | 0.434
NCI-H522 | – | – | – | – | – | 1.02 | 1.11 | 0.956 | 0.818 | 0.916 | 0.705 | 0.513 | 0.762 | 0.688 | 0.62 | – | – | – | – | –
NCI-H596 | 1.03 | 1.11 | 0.846 | 0.946 | 1.15 | – | – | – | – | – | 0.826 | 0.747 | 0.842 | 0.587 | 0.746 | 1.05 | 1.13 | 1.16 | 0.931 | 1.14
NCI-H1299 | 1.06 | 0.998 | 1.01 | 0.983 | 1.01 | – | – | – | – | – | – | – | – | – | – | 0.987 | 0.858 | 0.777 | 0.47 | 0.769
NCI-H1395 | – | – | – | – | – | 0.598 | 0.596 | 0.637 | – | 0.665 | 0.616 | 0.618 | 0.705 | 0.61 | 0.564 | 1.25 | 0.931 | 1.04 | 0.502 | 0.616
NCI-H1563 | 0.829 | 1 | 0.838 | 0.656 | 0.976 | – | – | – | – | – | 0.697 | 0.816 | 0.744 | 0.731 | 0.648 | 1.1 | 1.1 | 1.12 | 0.884 | 0.869
NCI-H1623 | – | – | – | – | – | – | – | – | – | – | 0.444 | 0.442 | 0.421 | 0.336 | 0.376 | – | – | – | – | –
NCI-H1648 | – | – | – | – | – | 0.235 | – | – | 0.296 | 0.303 | 0.279 | 0.276 | 0.232 | 0.261 | 0.26 | – | – | – | – | –
NCI-H1650 | 0.18 | 0.222 | 0.199 | 0.211 | 0.19 | 0.325 | 0.311 | 0.348 | 0.223 | 0.39 | 0.577 | 0.601 | 0.729 | 0.643 | 0.403 | – | – | – | – | –
NCI-H1703 | 0.305 | 0.26 | 0.248 | 0.446 | 0.307 | – | – | – | – | – | – | – | – | – | – | 0.709 | 0.838 | 0.436 | 0.464 | 0.294
NCI-H1793 | – | – | – | – | – | 0.248 | 0.294 | 0.29 | 0.269 | 0.279 | 0.289 | – | 0.335 | 0.286 | 0.259 | 0.572 | 0.801 | 0.915 | 0.715 | 0.513
NCI-H1944 | – | – | – | – | – | 0.399 | 0.358 | 0.298 | 0.309 | 0.303 | 0.445 | 0.344 | 0.391 | 0.375 | 0.314 | 1.31 | 1.18 | – | 1.14 | 1.16
NCI-H2170 | – | – | – | – | – | 0.397 | 0.402 | 0.375 | 0.385 | 0.386 | 0.716 | 0.642 | 0.784 | 0.653 | 0.787 | – | – | – | – | –
NCI-H2342 | – | – | – | – | – | 0.569 | 0.514 | 0.511 | 0.463 | 0.477 | 0.618 | 0.634 | 0.579 | 0.489 | 0.558 | – | – | – | – | –
SK-MES-1 | – | – | – | – | – | 0.322 | 0.327 | 0.278 | 0.32 | 0.318 | 0.584 | 0.643 | 0.684 | 0.558 | 0.528 | 1.24 | 0.952 | 0.896 | 0.774 | 0.823
SW 900 | – | – | – | – | – | 0.463 | 0.497 | 0.412 | – | 0.556 | 0.487 | 0.597 | 0.701 | 0.434 | 0.75 | – | – | – | – | –
